Results published in patent US8541410B2, “Sulfur substituted sulfonylaminocarboxylic acid N-arylamides, their preparation, their use and pharmaceutical preparations comprising them” (Sanofi-aventis Deutschland GmbH, priority 1998, dated 2013).

Molecular target: T1, soluble guanylate cyclase (sGC) (Bos taurus, UniProt P16068)
T1 construct: The sGC which was employed had been isolated from bovine lung; from tissue; host or cells: bovine lung
T1 sequence (P16068 1-619): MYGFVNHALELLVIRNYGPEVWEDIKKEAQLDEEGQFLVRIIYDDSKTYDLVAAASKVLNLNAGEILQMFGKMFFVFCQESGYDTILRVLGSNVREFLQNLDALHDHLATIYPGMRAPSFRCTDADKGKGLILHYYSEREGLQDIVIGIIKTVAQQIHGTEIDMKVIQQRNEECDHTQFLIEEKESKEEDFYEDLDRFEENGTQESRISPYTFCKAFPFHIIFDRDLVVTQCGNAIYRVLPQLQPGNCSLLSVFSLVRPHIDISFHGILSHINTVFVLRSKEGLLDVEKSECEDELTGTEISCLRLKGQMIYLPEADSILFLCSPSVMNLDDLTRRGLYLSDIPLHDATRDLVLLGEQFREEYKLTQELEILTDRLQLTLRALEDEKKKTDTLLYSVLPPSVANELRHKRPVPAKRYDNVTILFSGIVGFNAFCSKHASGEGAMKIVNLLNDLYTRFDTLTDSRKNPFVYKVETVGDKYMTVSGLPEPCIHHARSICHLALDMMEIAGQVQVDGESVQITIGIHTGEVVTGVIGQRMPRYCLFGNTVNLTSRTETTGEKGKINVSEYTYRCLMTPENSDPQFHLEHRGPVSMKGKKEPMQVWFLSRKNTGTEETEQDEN
T1 sequence (P19687 1-691 partner): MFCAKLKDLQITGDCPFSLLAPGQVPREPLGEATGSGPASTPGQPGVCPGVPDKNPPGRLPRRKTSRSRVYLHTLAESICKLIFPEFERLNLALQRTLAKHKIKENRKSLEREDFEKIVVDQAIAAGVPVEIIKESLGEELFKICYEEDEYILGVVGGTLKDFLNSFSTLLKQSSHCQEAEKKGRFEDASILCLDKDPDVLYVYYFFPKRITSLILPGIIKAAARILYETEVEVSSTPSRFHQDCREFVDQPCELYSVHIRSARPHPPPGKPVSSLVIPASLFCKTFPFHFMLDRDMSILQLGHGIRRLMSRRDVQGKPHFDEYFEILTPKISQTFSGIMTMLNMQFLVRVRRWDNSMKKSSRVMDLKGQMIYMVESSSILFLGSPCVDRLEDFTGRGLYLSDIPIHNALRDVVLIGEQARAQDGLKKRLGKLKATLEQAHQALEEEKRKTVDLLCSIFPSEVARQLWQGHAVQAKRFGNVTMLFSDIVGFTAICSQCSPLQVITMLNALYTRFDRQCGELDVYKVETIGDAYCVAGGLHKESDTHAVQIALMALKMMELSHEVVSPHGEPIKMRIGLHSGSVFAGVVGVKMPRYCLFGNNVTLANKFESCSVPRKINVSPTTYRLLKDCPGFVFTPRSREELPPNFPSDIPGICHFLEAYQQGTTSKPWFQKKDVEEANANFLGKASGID
Test: Activation of the soluble guanylate cyclase (cGMP enzyme immunoassay)
Type: biochemical, bovine
Details: concentration c 50 μM; n-fold stimulation of basal enzyme activity
Protocol: The activation of the soluble guanylate cyclase (sGC) which catalyzes the conversion of guanosine triphosphate (GTP) into cyclic guanosine monophosphate (cGMP) and pyrophosphate, by the compounds according to the invention was quantified with the aid of an enzyme immunoassay (EIA) from Amersham. For this purpose the substances to be tested were initially incubated with sGC in microtiter plates, and the amount of the cGMP formed was then determined.
The sGC which was employed had been isolated from bovine lung (see Methods in Enzymology, Volume 195, p. 377). The test solutions (100 μl per well) contained 50 mM triethanolamine (TEA) buffer (pH 7.5), 3 mM MgCl2, 3 mM reduced glutathione (GSH), 0.1 mM GTP, 1 mM 3-isobutyl-1-methylxanthine (IBMX), suitably diluted enzyme solution and the substance to be tested or, in the control experiments, the solvent. The substances to be tested were dissolved in dimethyl sulfoxide (DMSO) and the solution was diluted with DMSO/water, so that the final concentration (c) of the substance to be tested in the test solution had the value indicated in the table. The DMSO concentration in the test solution was 5% (v/v). The reaction was initiated by addition of the sGC. The reaction mixture was incubated at 37° C. for 15 to 20 minutes and then stopped by ice-cooling and addition of the stop reagent (50 mM EDTA, pH 8.0). An aliquot of 50 μl was taken and used for determining the cGMP content using the acetylation protocol of the Amersham cGMP-EIA kit. The absorption of the samples was measured at 450 nm (reference wavelength 620 nm) in a microtiter plate reader. The cGMP concentration was determined using a standard curve which was obtained under the same test conditions. The activation of sGC by a test substance is given as the n-fold stimulation of the basal enzyme activity which was found in the control experiments (using solvent instead of test substance) (calculated using the formula n-fold stimulation=[cGMP]test substance/[cGMP]control).

Compound: CSc1ccc(NC(=O)c2cc(Cl)ccc2NS(=O)(=O)c2ccc(Cl)cc2)cc1 [Example 23, 5-Chloro-2-(4-chloro-phenylsulfonylamino)-N-(4-methylmercapto-phenyl)-benzamide]
- n-fold stimulation: 14.7

Compound: O=C(Nc1ccc(S(=O)(=O)N2CCSCC2)cc1)c1cc(Cl)ccc1NS(=O)(=O)c1ccc(Cl)cc1 [Example 63, 5-Chloro-2-(4-chloro-phenylsulfonylamino)-N-(4-(thiomorpholine-4-sulfonyl)-phenyl)-benzamide]
- n-fold stimulation: 33.9

Compound: CN1CCN(S(=O)(=O)c2ccc(NC(=O)c3cc(Cl)ccc3NS(=O)(=O)c3ccc(Cl)cc3)cc2)CC1 [Example 64, 5-Chloro-2-(4-chloro-phenylsulfonylamino)-N-(4-(4-methyl-piperazine-1-sulfonyl)-phenyl)-benzamide]
- n-fold stimulation: 23.9

Compound: CC1CN(S(=O)(=O)c2ccc(NC(=O)c3cc(Cl)ccc3NS(=O)(=O)c3ccc(Cl)cc3)cc2)CC(C)O1 (stereo not shown) [Example 65, 5-Chloro-2-(4-chloro-phenylsulfonylamino)-N-(4-(2,6-dimethyl-morpholine-4-sulfonyl)-phenyl)-benzamide]
- n-fold stimulation: 24.6

Compound: C[C@@H]1CN(S(=O)(=O)c2ccc(NC(=O)c3cc(Cl)ccc3NS(=O)(=O)c3ccc(Cl)cc3)cc2)C[C@H](C)O1 [Example 66, 5-Chloro-2-(4-chloro-phenylsulfonylamino)-N-(4-(cis-2,6-dimethyl-morpholine-4-sulfonyl)-phenyl)-benzamide]
- n-fold stimulation: 33

Compound: O=C(Nc1ccc(S(=O)(=O)N2CCC(O)CC2)cc1)c1cc(Cl)ccc1NS(=O)(=O)c1ccc(Cl)cc1 [Example 67, 5-Chloro-2-(4-chloro-phenylsulfonylamino)-N-(4-(4-hydroxy-piperidine-1-sulfonyl)-phenyl)-benzamide]
- n-fold stimulation: 29.6

Compound: O=C(Nc1ccc(S(=O)(=O)N2CCC3(CC2)OCCO3)cc1)c1cc(Cl)ccc1NS(=O)(=O)c1ccc(Cl)cc1 [Example 68, 5-Chloro-2-(4-chloro-phenylsulfonylamino)-N-(4-(1,4-dioxa-8-aza-spiro[4.5]decane-8-sulfonyl)-phenyl)-benzamide]
- n-fold stimulation: 12.1

Compound: O=C(Nc1ccc(S(=O)(=O)N2CCOCC2)cc1)c1cc(Cl)ccc1NS(=O)(=O)c1ccc(Cl)c(Cl)c1 [Example 69, 5-Chloro-2-(3,4-dichloro-phenylsulfonylamino)-N-(4-(morpholine-4-sulfonyl)-phenyl)-benzamide]
- n-fold stimulation: 28.3

Compound: O=C(Nc1ccc(S(=O)(=O)N2CCSCC2)cc1)c1cc(Cl)ccc1NS(=O)(=O)c1ccc(Cl)c(Cl)c1 [Example 70, 5-Chloro-2-(3,4-dichloro-phenylsulfonylamino)-N-(4-(thiomorpholine-4-sulfonyl)-phenyl)-benzamide]
- n-fold stimulation: 25.1

Compound: CN1CCN(S(=O)(=O)c2ccc(NC(=O)c3cc(Cl)ccc3NS(=O)(=O)c3ccc(Cl)c(Cl)c3)cc2)CC1 [Example 71, 5-Chloro-2-(3,4-dichloro-phenylsulfonylamino)-N-(4-(b4-methyl-piperazine-1-sulfonyl)-phenyl)-benzamide]
- n-fold stimulation: 13.4

Compound: COc1cc(NS(=O)(=O)c2ccc(Cl)cc2)c(C(=O)Nc2ccc(S(=O)(=O)N3CCOCC3)cc2)cc1OC [Example 72, 2-(4-Chloro-phenylsulfonylamino)-4,5-dimethoxy-N-(4-(morpholine-4-sulfonyl)-phenyl)-benzamide]
- n-fold stimulation: 27

Compound: O=C(Nc1ccc(S(=O)(=O)N2CCN(CCO)CC2)cc1)c1cc(Cl)ccc1NS(=O)(=O)c1ccc(Cl)cc1 [Example 73, 5-Chloro-2-(4-chloro-phenylsulfonylamino)-N-(4-(4-(2-hydroxy-ethyl)-piperazine-1-sulfonyl)-phenyl)-benzamide]
- n-fold stimulation: 16.5

Compound: CCN(CC)S(=O)(=O)c1ccc(NC(=O)c2cc(Cl)ccc2NS(=O)(=O)c2ccc(Cl)cc2)cc1 [Example 75, 5-Chloro-2-(4-chloro-phenylsulfonylamino)-N-(4-diethylsulfamoyl-phenyl)-benzamide]
- n-fold stimulation: 5.1

Compound: O=C(Nc1ccc(S(=O)(=O)N2CCCCC2)cc1)c1cc(Cl)ccc1NS(=O)(=O)c1ccc(Cl)cc1 [Example 76, 5-Chloro-2-(4-chloro-phenylsulfonylamino)-N-(4-(piperidine-1-sulfonyl)-phenyl)-benzamide]
- n-fold stimulation: 10.6

Compound: COCCNS(=O)(=O)c1ccc(NC(=O)c2cc(Cl)ccc2NS(=O)(=O)c2ccc(Cl)cc2)cc1 [Example 77, 5-Chloro-2-(4-chloro-phenylsulfonylamino)-N-(4-(2-methoxy-ethylsulfamoyl)-phenyl)-benzamide]
- n-fold stimulation: 5.9

Compound: O=C(Nc1ccc(S(=O)(=O)N2CCOCC2)cc1)c1sccc1NS(=O)(=O)c1ccc(Cl)cc1 [Example 79, 3-(4-Chloro-phenylsulfonylamino)-N-(4-(morpholine-4-sulfonyl)-phenyl)-thiophene-2-carboxamide]
- n-fold stimulation: 15.4

Compound: O=C(Nc1ccc(S(=O)(=O)N2CCSCC2)cc1)c1sccc1NS(=O)(=O)c1ccc(Cl)cc1 [Example 84, 3-(4-Chloro-phenylsulfonylamino)-N-(4-(thiomorpholine-4-sulfonyl)-phenyl)-thiophene-2-carboxamide]
- n-fold stimulation: 23.7

Compound: Cc1ccc(NS(=O)(=O)c2ccc(Cl)cc2)c(C(=O)Nc2ccc(S(=O)(=O)N3CCSCC3)cc2)c1 [Example 86, 2-(4-Chloro-phenylsulionylamino)-5-methyl-N-(4-(thiomorpholine-4-sulfonyl)-phenyl)-benzamide]
- n-fold stimulation: 32.9

Compound: COc1cc(NS(=O)(=O)c2ccc(Cl)cc2)c(C(=O)Nc2ccc(S(=O)(=O)N3CCN(C)CC3)cc2)cc1OC [Example 87, 2-(4-Chloro-phenylsulfonylamino)-4,5-dimethoxy-N-(4-(4-methyl-piperazine-1-sulfonyl)-phenyl)-benzamide]
- n-fold stimulation: 12.5

Compound: COc1cc(NS(=O)(=O)c2ccc(Cl)cc2)c(C(=O)Nc2ccc(S(=O)(=O)N3CCC(O)CC3)cc2)cc1OC [Example 89, 2-(4-Chloro-phenylsulfonylamino)-N-(4-(4-hydroxy-piperidine-1-sulfonyl)-phenyl)-4,5-dimethoxy-benzamide]
- n-fold stimulation: 11.6

Compound: Cc1nn(C)c(Cl)c1S(=O)(=O)Nc1ccc(Cl)cc1C(=O)Nc1ccc(S(=O)(=O)N2CCSCC2)cc1 [Example 124, 5-Chloro-2-(5-chloro-1,3-dimethyl-1H-pyrazole-4-sulfonyl-amino)-N-(4-(thiomorpholine-4-sulfonyl)-phenyl)-benzamide]
- n-fold stimulation: 31.2

Compound: Cc1nn(C)c(Cl)c1S(=O)(=O)Nc1ccc(Cl)cc1C(=O)Nc1ccc(S(=O)(=O)N2CCOCC2)cc1 [Example 130, 5-Chloro-2-(5-chloro-1,3-dimethyl-pyrazole-4-sulfonyl-amino)-N-(4-(morpholine-4-sulfonyl)-phenyl)-benzamide]
- n-fold stimulation: 35.3
